The test system of assay [1] is Cisd2 knockout mice. As to the kind of experiment: Body weight of Cisd2 knockout mice after oral resveratrol treatment. The format is in vivo, mouse. The conditions noted are these: 30 mg/kg/day oral from 4- to 12-week old; effect after 8-week old; P<0.05 vs untreated control. How it is done:
(17A) Oral administration of resveratrol (30 mg/kg/day) to Cisd2 knockout mice from 4- to 12-week old. (17B) To analyze the body weight of the Cisd2 knockout mice after resveratrol treatment and compare to 4-week old wild-type mice. Values represent mean±s.d from at least three male samples. Asterisks indicate statistically significant differences compare with untreated control. (*, P<0.05) Resveratrol (30 mg/kg/day) was administered by oral to Cisd2 knockout mice from 4- to 12-week old. The body weight of the Cisd2 knockout mice was analyzed after resveratrol treatment and comparing to 4-week old wild-type mice (FIG. 17).

Assay [2] concerns Cisd2 knockout mice. As to the kind of experiment: Muscle and neuron degeneration in Cisd2 knockout mice after resveratrol treatment (H&E staining, TEM). The format is in vivo, mouse. The conditions noted are these: 30 mg/kg/day oral from 4- to 12-week old. The text has this:
(18A-F) H&E staining of transverse sections of skeletal muscle dissected from the 12-week old, male Cisd2 knockout mice with (18A) untreated control, (18B) resveratrol or (18C) H2O treatment, and (18D-F) relative wild-type control. Black arrowheads indicate degenerated transverse fibers. Blue arrows indicate angular fibres which are the evidences of muscle atrophy caused by neuron degeneration. (18G) The standard quantification score of muscle atrophy. (18H) The quantification of degenerative muscle fiberin under resveratrol treated or not. About 1000 muscle fibre in random fields of H&E staining slides were examined for each mouse. Values represent mean±s.d from at least three male samples. […] Myelin sheath degeneration (asterisks) was detected only in the Cisd2 knockout mice. […] (18U) The standard quantification score of axon and myelin sheath degeneration. (18V) The quantification of degenerative sciatic nerve in wild-type, Cisd2 knockout and Cisd2 knockout mice with resveratrol treatment, respectively. […] The standard quantification score of muscle atrophy was prepared. The quantification of degenerative muscle fiberin was measured under resveratrol treated or not. […] Myelin sheath degeneration was detected only in the Cisd2 knockout mice. The standard quantification score of axon and myelin sheath degeneration was created. […]

Turning to `Oc1ccc(C=Cc2cc(O)cc(O)c2)cc1` [Resveratrol], the “body weight of Cisd2 knockout mice” value in assay [1] is given as “significant reverse”. Also, the “muscle degeneration of the Cisd2 knockout mice” value in assay [2] (12-week old male mice, skeletal muscle H&E, skeletal and cardiac muscle ultrastructure) is “partial rescue”. Besides, in assay [2] (12-week old mice, sciatic nerve TEM, axon and myelin sheath degeneration), the “neuron degeneration of the Cisd2 knockout mice” value is on record as “partial rescue”.

The record behind these values is US20110185440A1, “CISD2-Knockout Mice and Uses Thereof” (NATIONAL YANG-MING UNIVERSITY, priority 2006, published 2011).
